Laboratory results as given in paper PMC3131601, “A Novel Cold-Active Lipase from Candida albicans: Cloning, Expression and Characterization of the Recombinant Enzyme” (International Journal of Molecular Sciences, 2011).

Test system: T1, Lip5-DM (recombinant Lip5, CALip5)
T1 construct: putative 14-residue signal peptide removed; secreted from Pichia pastoris X-33 (pGAPZalphaA), about 50 kDa
Experiment: p-nitrophenol release at […] nm, Lineweaver-Burk
Type: biochemical, Candida albicans
Conditions: 100 mM Na2HPO4-NaH2PO4 pH 6.0; kinetics run at 5, 15 and 25 °C, temperature of table values not stated

Compound	Km
CCCC(=O)Oc1ccc([N+](=O)[O-])cc1 [C4, p-NP-butyrate]	410 µM
CCCCCCCC(=O)Oc1ccc([N+](=O)[O-])cc1 [C8, p-NP-caprylate]	270 µM
CCCCCCCCCCCC(=O)Oc1ccc([N+](=O)[O-])cc1 [C12, p-NP-laurate]	500 µM
CCCCCCCCCCCCCCCC(=O)Oc1ccc([N+](=O)[O-])cc1 [C16, p-NP-palmitate]	360 µM
